We go through one compound from US9757402B2, “Method for measuring cell-to-cell transmission of α-synuclein aggregates using bimolecular fluorescence complementation system and method for screening a substance for preventing or treating neurodegenerative disease using the same” (KONKUK UNIVERSITY INDUSTRIAL COOPERATION CORP, priority 2014, dated 2017).

SMILES strings stand for the structures.

Type in all cases: in vivo, Caenorhabditis elegans
For assay [1], the system named is V1S+SV2 and daf-16(mu86); V1S+SV2 animals. Nature of the assay: Life span assay with GlcNAc treatment. The note with it: 10 mM GlcNAc, both V1S+SV2 and daf-16(mu86). The method, then: Eggs laid by adult mother worms were synchronously grown up to the L4 larval stage on NGM plates seeded with E. coli OP50 at 20° C. The L4-stage worms were transferred to NGM plates containing 100 mM 5-fluoro-2′-deoxyuridine (Sigma) to prevent them from producing progeny. The number of worms that were alive or dead was recorded every 1-2 days.
(§1) N-acetylglucosamine (GlcNAc) (Sigma) was dissolved in distilled water to prepare 1 M as stock solution. The stock solution was diluted with LB liquid medium. The L4-stage worms of each transgenic line were transferred to NGM plates containing a final concentration of 10 mM GlcNAc.

Assay [2] concerns single tissue expression lines carrying V1S or SV2 alone in N2 and daf-16(mu86) mutant worms. The experiment in a line: GlcNAc treatment of single tissue expression lines (V1S or SV2 alone). The method, then: Pmyo-2::V1S and Pflp-21::SV2-ICR-DsRed plasmids were co-injected into the gonads of late L4-stage daf-2(e1370) and daf-16(mu86) mutant worms with the pRF4. As a control for aging related BiFC models, Pmyo-2::V1S or Pflp-21::SV2::ICR::DsRed alone was injected into the gonads of late L4-stage of N2 and daf-16(mu86) mutant worms with pRF4. After several transgenic lines containing the introduced plasmids were obtained, three representative lines in each mutant background were used for experiments.
Worms were immobilized with 10 mM sodium azide in M9 buffer, mounted on 2% agar pads, and covered with a coverslip. Images of the worms were acquired using Olympus FV1000 confocal laser scanning microscopy (Olympus, Tokyo, Japan).
as §1
Adult worms of each strain were washed with M9 buffer and subsequently with PBS containing 1% Triton X-100. The worm pellet was sonicated in PBS containing 1% Triton X-100, 1% (v/v) protease inhibitor cocktail. Protein samples (500 ng) were loaded onto nitrocellulose membranes, which were then dried and incubated in blocking solution. The primary antibodies used for dot blotting were the monoclonal anti-α-synuclein antibodies 274 mAb and Syn-O2, the latter of which is specific for aggregated α-synuclein. Chemiluminescence detection was performed using the LAS-3000 luminescence image analyzer and Multi Gauge (v3.0) software.

Assay [3] concerns asp-4(ok2693); V1S+SV2 and asp-1(tm666); V1S+SV2 worms. The experiment in a line: Epistasis analysis: GlcNAc treatment of cathepsin mutant BiFC worms. The note with it: asp-1 and asp-4 mutant transgenic animals, in contrast to V1S+SV2 worms.
Source text: A plasmid expressing hlh-30p::hlh-30::gfp was obtained from Dr. Malene Hansen (Sanford-Burnham Medical Research Institute, CA, USA). The plasmid hlh-30p::hlh-30 was designed to introduce codon before the GFP coding sequence using a QuickChange Site-Directed Mutagenesis Kit to inhibit GFP expression. As a control, each Pmyo-2::V1S or Pflp 21::SV2-ICR-DsRed and hlh-30p::hlh-30 were co-injected into the gonads of late L4-stage N2 worm with pRF4. The plasmids expressing Pmyo-2::V1S, Pflp-21::SV2-ICR-DsRed and hlh-30p::hlh-30 were co-injected into the gonads of late L4-stage daf-16(mu86) mutant worms with pRF4. To analyze lysosomal dysfunction, asp-4(ok2693) and asp-1(tm666) mutant worms, in which the lysosomal enzyme cathepsin gene is inactivated, were used. Pmyo-2::V1S and Pflp-21::SV2-ICR-DsRed plasmids were co-injected into the gonads of late L4-stage mutant worms with pRF4. After transgenic lines containing the introduced plasmids were obtained, three representative lines of each genotype were used for experiments
as §1

Assay [4] deals with lysosomal genes, sqst-1/p62. The experiment in a line: Expression of lysosomal and autophagy genes (qPCR) upon GlcNAc treatment. The method, then: as §1
Adult transgenic worms derived from daf-16(mu86) mutants with or without hlh-30p::hlh-30 expression were collected, and washed in M9 buffer. The worms in the buffer were sonicated and the samples were subjected to several freeze-thaw cycles using liquid nitrogen. RNA was extracted with Trizol (Invitrogen, Carlsbad, Calif.) and purified using the RNeasy kit (Qiagen, Valencia, Calif., USA). Each cDNA was synthesized from 500 ng of total RNA using the iScript cDNA synthesis kit (Bio-Rad, Hercules, Calif.). For real-time PCR, target genes and specific primers were mixed with SYBR Premix Ex Taq II (Takara, Shiga, Japan) in 96-well plates. Specific primers previously designed by other group were used (Lapierre, L. R., et al. (2013). The TFEB orthologue HLH-30 regulates autophagy and modulates longevity in Caenorhabditis elegans. Nat. Commun 4, 2267). The DNA products were analyzed using the 7500 Real-Time PCR system (Applied Biosystems, Foster City, Calif.). […]

The subject of assay [5] is V1S+SV2 and daf-16(mu86); V1S+SV2 animals. Nature of the assay: Nerve degeneration in C. elegans BiFC model with GlcNAc treatment. The note with it: 10 mM GlcNAc, both V1S+SV2 and daf-16(mu86). The method, then: Worms were immobilized with 10 mM sodium azide in M9 buffer, mounted on 2% agar pads, and covered with a coverslip. Images of the worms were acquired using Olympus FV1000 confocal laser scanning microscopy (Olympus, Tokyo, Japan). N-acetylglucosamine (GlcNAc) (Sigma) was dissolved in distilled water to prepare 1 M as stock solution. The stock solution was diluted with LB liquid medium. The L4-stage worms of each transgenic line were transferred to NGM plates containing a final concentration of 10 mM GlcNAc. The present inventors then examined the degeneration of axonal processes from the URA motor neuron (Rogers et al., 2003). These nerves were intact in the wild-type N2 at day 8. Expression of SV2 in neurons caused neuritic bleb formation and nerve fragmentation in a small number of worms (FIGS. 23g, 23h, 23i, 23j, and 23k), indicating autonomous cellular toxicity of α-synuclein in neurons. These degenerative phenotypes were further exacerbated when […] was expressed in the pharyngeal muscle, and approximately 15% of nerves were completely lost (FIG. 23k). To verify nerve fragmentation, 3-D reconstruction of the stacked images of nerve processes was performed. […] Nerve degeneration worsened as the transgenic worms aged (FIG. 23j).

Assay [6] relates to polyubiquitinated proteins. The experiment in a line: Steady state levels of polyubiquitinated proteins (western blotting) in transgenic worms. The note with it: transgenic animals treated with GlcNAc. The method, then: (§2) N-acetylglucosamine (GlcNAc) (Sigma) was dissolved in distilled water to prepare 1 M as stock solution. The stock solution was diluted with LB liquid medium. The L4-stage worms of each transgenic line were transferred to NGM plates containing a final concentration of 10 mM GlcNAc. Adult worms were washed with M9 buffer and subsequently with PBS containing 1% Triton X-100. The worm pellet was sonicated in PBS containing 1% Triton X-100, 1% (v/v) protease inhibitor cocktail (Sigma) and centrifuged to obtain the Triton-soluble (supernatant) and insoluble (pellet) fractions. Protein concentration was measured using the BCA protein assay kit (Pierce, Rockford, USA). Protein samples (3 μg for α-synuclein expression test and 50 μg to detect polyubiquitin proteins) were loaded onto 12% SDS-PAGE gels. The primary antibodies used for western blotting were monoclonal anti-α-synuclein antibody, 274 mAb and anti-ubiquitn antibody (ab7254; Abcam, Cambridge, Mass.). Chemiluminescence detection was performed using the LAS-3000 luminescence image analyzer, (Fujifilm, Tokyo, Japan), and Multi Gauge (y3.0) software.
Background: Immunoblotting shows a protein as a band on a membrane.

The test system of assay [7] is V1S+SV2 and daf-16(mu86); V1S+SV2 animals. The experiment in a line: Pharyngeal pumping analysis with GlcNAc treatment. The note with it: 10 mM GlcNAc, both V1S+SV2 and daf-16(mu86). The method, then:
Pharyngeal pumping was counted for 1 min at RT using a fluorescence microscope. 25 worms from each strain were analyzed. The data were expressed as PPM (Pumps Per Minute). N-acetylglucosamine (GlcNAc) (Sigma) was dissolved in distilled water to prepare 1 M as stock solution. The stock solution was diluted with LB liquid medium. The L4-stage worms of each transgenic line were transferred to NGM plates containing a final concentration of 10 mM GlcNAc.

The subject of assay [8] is α-synuclein aggregates. The experiment in a line: Dot blot and western blot of α-synuclein aggregates in transgenic worms. The method, then: as §2, with “software. Adult worms of each strain were washed with M9 buffer and subsequently with PBS containing 1% Triton X-100. […] Chemiluminescence detection was performed using the LAS-3000 luminescence image analyzer and Multi Gauge (v3.0) software.” for “software.”

The subject of assay [9] is V1S+SV2 and daf-16(mu86); V1S+SV2 animals. Nature of the assay: BiFC-positive inclusion body formation / aggregate transmission in C. elegans BiFC model with GlcNAc treatment. The method, then:
Pmyo-2::V1S and Pflp-21::SV2-ICR-DsRed plasmids were co-injected into the gonads of late L4-stage N2 worms with a selection marker, pRF4 which expresses a mutant collagen gene, rol-6(su1006) (Mello, C. C., et al. 1991. Efficient gene transfer in C. elegans: extrachromosomal maintenance and integration of transforming sequences. The EMBO J 10, 3959-3970), to prepare double transgenic line expressing the BiFC pair. As a negative control for BiFC, Pmyo-2::V1S alone was injected into N2 worms with pRF4, and Pflp-21::SV2-ICR-DsRed alone was injected into unc-119(ed3) mutant worms with a selection marker, pCFJ151, which expresses unc-119(+) gene (Frokjaer-Jensen, et al. 2008. Single-copy insertion of transgenes in Caenorhabditis elegans. Nat. Genet 40, 1375-1383). The plasmid Pmyo-2::V1 was prepared to express the BiFC partial sequence only by introducing the stop codon right before the α-synuclein coding sequence in Pmyo-2::V1S and was prepared using a QuickChange Site-Directed Mutagenesis Kit (Stratagene, La Jolla, Calif.). Pmyo-2::V1 and Pflp-21::SV2-ICR-DsRed plasmids were then co-injected into N2 with pRF4. In addition, Pflp-21::DsRed was injected into N2 with pRF4 as a control for the effects of general protein overexpression in neurons. For chromosomal integration of the introduced plasmids, injected lines were exposed to UV irradiation. […]

As for `CC(=O)N[C@H]1C(O)O[C@H](CO)[C@@H](O)[C@@H]1O` (stereo partly drawn) [GlcNAc, N-acetylglucosamine], the results for the life span entry in assay [1] and in assay [1] (listed as N-acetylglucosamine) were “significantly alleviated” and “extended”, respectively. Besides, in [2] (V1S or SV2 alone in N2 and daf-16(mu86), versus untreated animals), the “pathogenic phenotypes (nerve degeneration, pumping behavior, life span)” value is given as “did not exhibit significant changes”. Besides, the “expression levels of α-synuclein” value in [2] (dot blot, GlcNAc treatment) is “not changed”. Further, the “neuronal expression of flp-21 promoter (Ds-Red)” value in [2] (with or without GlcNAc treatment) is on record as “strictly confined in neuronal cells”. The aging-related phenotypes result in assay [3] is on record as “not rescued”. Further, the “expression of lysosomal genes and autophagy gene sqst-1/p62” value in [4] is “increased”. Also, in assay [5], the “phenotypes for nerve degeneration” value was “significantly alleviated”. In addition, in assay [6], the “levels of polyubiquitinated proteins” value is “decreased”. Besides, the values for the pumping behavior entry in [7] and in assay [7] (listed as N-acetylglucosamine) were “significantly alleviated” and “increased”, respectively. For the same compound, the “levels of high molecular weight (HM) α-synuclein aggregates” value in assay [8] (Triton-insoluble (Tx-insol) fraction of transgenic worms, western blot) is on record as “significantly decreased”. For the same compound, the “β-sheet-rich α-synuclein aggregates” value in [8] (dot blot with Syn-02 antibody, transgenic worms) was “reduced”. In addition, the “formation of BiFC-positive inclusion bodies” value in assay [9] (10 mM GlcNAc from L4-stage, both V1S+SV2 and daf-16(mu86), V1S+SV2 animals) is recorded as “reduced”. Besides, the “transmission of α-synuclein aggregates” value in assay [9] (BiFC experimental animal model) is “inhibiting”.
